{"source": "patent US8648066B2", "about": "(Exelixis, Inc., priority 2009, dated 2014)"}
{"molecular_target": "mTOR/GbL/Raptor (mTORC1) (Homo sapiens, UniProt P42345)", "test": "mTOR/GbL/Raptor (mTORC1) ELISA assay", "type": "biochemical", "conditions": "phosphorylation of 4E-BP1; 0.2 nM mTORC1, 10 μM ATP; read-out: IC50 in this assay (mTORC1 ELISA)", "how_it_was_run": "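Human mTORC1 (0.2 nM) phosphorylated 50 nM His-tagged 4E-BP1 with 10 µM ATP in HEPES pH 7.2 containing 10 mM MnCl2, 120 min at ambient temperature. Substrate was captured on Ni-chelate plates; phospho-4E-BP1 was detected by primary antibody and HRP secondary with luminescence.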", "units": {"IC50": "nM"}}
{"smiles": "Cc1nc2ncc(-c3ccc4c(c3)CN(c3ncnc5c3CCC(C)(C)C5)CCO4)cc2[nH]1", "note": "[Example 484, 4-(7,7-dimethyl-5,6,7,8-tetrahydroquinazolin-4-yl)-7-(2-methyl-1H-imidazo[4,5-b]pyridin-6-yl)-2,3,4,5-tetrahydro-1,4-benzoxazepine]", "IC50": "≤ 10"}
{"smiles": "Cc1nc2ncc(-c3ccc4c(c3)CN(c3ncnc5c3CCCC5(C)C)CCO4)cc2[nH]1", "note": "[Example 485, 4-(8,8-dimethyl-5,6,7,8-tetrahydroquinazolin-4-yl)-7-(2-methyl-1H-imidazo[4,5-b]pyridin-6-yl)-2,3,4,5-tetrahydro-1,4-benzoxazepine]", "IC50": "10 to 50"}
{"smiles": "Cc1nc2ncc(-c3ccc4c(c3)CN(c3ncnc5c3C[C@H](C)[C@@H](C)C5)CCO4)cc2[nH]1", "note": "[Example 486, 4-[(6S,7S)-6,7-dimethyl-5,6,7,8-tetrahydroquinazolin-4-yl]-7-(2-methyl-1H-imidazo[4,5-b]pyridin-6-yl)-2,3,4,5-tetrahydro-1,4-benzoxazepine]", "IC50": "≤ 10"}
{"smiles": "CC[C@H]1CCc2c(nc(C)nc2N2CCOc3ccc(-c4cnc5nc(C)[nH]c5c4)cc3C2)C1", "note": "[Example 487, 4-[(7S)-7-ethyl-2-methyl-5,6,7,8-tetrahydroquinazolin-4-yl]-7-(2-methyl-1H-imidazo[4,5-b]pyridin-6-yl)-2,3,4,5-tetrahydro-1,4-benzoxazepine]", "IC50": "10 to 50"}
{"smiles": "CC[C@H]1CCc2c(ncnc2N2CCOc3ccc(-c4cnc5nc(C)[nH]c5c4)cc3C2)C1", "note": "[Example 488, 4-[(7S)-7-ethyl-5,6,7,8-tetrahydroquinazolin-4-yl]-7-(2-methyl-1H-imidazo[4,5-b]pyridin-6-yl)-2,3,4,5-tetrahydro-1,4-benzoxazepine]", "IC50": "≤ 10"}
{"smiles": "C=C[C@H]1CCCc2c(ncnc2N2CCOc3ccc(-c4cnc5nc(C)[nH]c5c4)cc3C2)C1", "note": "[Example 489, 4-[(8S)-8-ethenyl-6,7,8,9-tetrahydro-5H-cyclohept[d]pyrimidin-4-yl]-7-(2-methyl-1H-imidazo[4,5-b]pyridin-6-yl)-2,3,4,5-tetrahydro-1,4-benzoxazepine]", "IC50": "≤ 10"}
{"smiles": "CC[C@H]1CCCc2c(ncnc2N2CCOc3ccc(-c4cnc5nc(C)[nH]c5c4)cc3C2)C1", "note": "[Example 490]", "IC50": "≤ 10"}
{"smiles": "Cc1nc(C)c(C(C)C)c(N2CCOc3ccc(-c4cnc5nc(C)[nH]c5c4)cc3C2)n1", "note": "[Example 491, 4-[2,6-dimethyl-5-(1-methylethyl)pyrimidin-4-yl]-7-(2-methyl-1H-imidazo[4,5-b]pyridin-6-yl)-2,3,4,5-tetrahydro-1,4-benzoxazepine]", "IC50": "≤ 10"}
{"smiles": "Cc1nc(C)c(CC2CC2)c(N2CCOc3ccc(-c4cnc5nc(C)[nH]c5c4)cc3C2)n1", "note": "[Example 492, 4-[5-(cyclopropylmethyl)-2,6-dimethylpyrimidin-4-yl]-7-(2-methyl-1H-imidazo[4,5-b]pyridin-6-yl)-2,3,4,5-tetrahydro-1,4-benzoxazepine]", "IC50": "10 to 50"}
{"smiles": "Cc1nc2ncc(-c3ccc4c(c3)CN(c3ncnc(C)c3CC3CC3)CCO4)cc2[nH]1", "note": "[Example 493, 4-[5-(cyclopropylmethyl)-6-methylpyrimidin-4-yl]-7-(2-methyl-1H-imidazo[4,5-b]pyridin-6-yl)-2,3,4,5-tetrahydro-1,4-benzoxazepine]", "IC50": "10 to 50"}
{"smiles": "COCCOCc1nc2c(c(N3CCOc4ccc(-c5ccc6nc(C)[nH]c6c5)cc4C3)n1)CC(C)(C)CC2", "note": "[Example 494, 4-[6,6-dimethyl-2-({[2-(methyloxy)ethyl]oxy}methyl)-5,6,7,8-tetrahydroquinazolin-4-yl]-7-(2-methyl-1H-benzimidazol-6-yl)-2,3,4,5-tetrahydro-1,4-benzoxazepine]", "IC50": "10 to 50"}
{"smiles": "COCCOCc1nc2c(c(N3CCOc4ccc(-c5cnc6nc(C)[nH]c6c5)cc4C3)n1)CC(C)(C)CC2", "note": "[Example 495, 4-[6,6-dimethyl-2-({[2-(methyloxy)ethyl]oxy}methyl)-5,6,7,8-tetrahydroquinazolin-4-yl]-7-(2-methyl-1H-imidazo[4,5-b]pyridin-6-yl)-2,3,4,5-tetrahydro-1,4-benzoxazepine]", "IC50": "≤ 10"}
{"smiles": "Cc1nc2cc(-c3ccc4c(c3)CN(c3nc(C(C)N5CCCC5)nc5c3CC(C)(C)CC5)CCO4)cnc2[nH]1", "note": "(stereo not shown) [Example 496, 4-[6,6-dimethyl-2-(1-pyrrolidin-1-ylethyl)-5,6,7,8-tetrahydroquinazolin-4-yl]-7-(2-methyl-3H-imidazo[4,5-b]pyridin-6-yl)-2,3,4,5-tetrahydro-1,4-benzoxazepine]", "IC50": "250 to 1000"}
{"smiles": "Cc1nc2cc(-c3ccc4c(c3)CN(c3nc(CCN5CCCC5)nc5c3CC(C)(C)CC5)CCO4)cnc2[nH]1", "note": "[Example 497, 4-[6,6-dimethyl-2-(2-pyrrolidin-1-ylethyl)-5,6,7,8-tetrahydroquinazolin-4-yl]-7-(2-methyl-3H-imidazo[4,5-b]pyridin-6-yl)-2,3,4,5-tetrahydro-1,4-benzoxazepine]", "IC50": "10 to 50"}
{"smiles": "Cc1nc2ncc(-c3ccc4c(c3)CN(c3nc(CN5CCOCC5)nc5c3CC(C)(C)CC5)CCO4)cc2[nH]1", "note": "[Example 498, 4-[6,6-dimethyl-2-(morpholin-4-ylmethyl)-5,6,7,8-tetrahydroquinazolin-4-yl]-7-(2-methyl-1H-imidazo[4,5-b]pyridin-6-yl)-2,3,4,5-tetrahydro-1,4-benzoxazepine]", "IC50": "50 to 250"}
{"smiles": "Cc1nc2ncc(-c3ccc4c(c3)CN(c3nc(CN5CCCCC5)nc5c3CC(C)(C)CC5)CCO4)cc2[nH]1", "note": "[Example 499, 4-[6,6-dimethyl-2-(piperidin-1-ylmethyl)-5,6,7,8-tetrahydroquinazolin-4-yl]-7-(2-methyl-1H-imidazo[4,5-b]pyridin-6-yl)-2,3,4,5-tetrahydro-1,4-benzoxazepine]", "IC50": "50 to 250"}
{"smiles": "Cc1nc2cc(-c3ccc4c(c3)CN(c3nc(CN5CCCC5)nc5c3CC(C)(C)CC5)CCO4)ccc2[nH]1", "note": "[Example 500, 4-[6,6-dimethyl-2-(pyrrolidin-1-ylmethyl)-5,6,7,8-tetrahydroquinazolin-4-yl]-7-(2-methyl-1H-benzimidazol-5-yl)-2,3,4,5-tetrahydro-1,4-benzoxazepine]", "IC50": "≤ 10"}
{"smiles": "Cc1nc2cc(-c3ccc4c(c3)CN(c3nc(CN5CCCC5)nc5c3CC(C)(C)CC5)CCO4)cnc2[nH]1", "note": "[Example 501, 4-[6,6-dimethyl-2-(pyrrolidin-1-ylmethyl)-5,6,7,8-tetrahydroquinazolin-4-yl]-7-(2-methyl-3H-imidazo[4,5-b]pyridin-6-yl)-2,3,4,5-tetrahydro-1,4-benzoxazepine]", "IC50": "≤ 10"}
{"smiles": "Cc1nc2cc(-c3ccc4c(c3)CN(c3ncnc5c3CC3(CC5)CC3)CCO4)cnc2[nH]1", "note": "[Example 502]", "IC50": "≤ 10"}
{"smiles": "Cc1nc2ncc(-c3ccc4c(c3)CN(c3nc(CN5CCC(F)(F)C5)nc5c3CC(C)(C)CC5)CCO4)cc2[nH]1", "note": "[Example 503, 4-{2-[(3,3-difluoropyrrolidin-1-yl)methyl]-6,6-dimethyl-5,6,7,8-tetrahydroquinazolin-4-yl}-7-(2-methyl-1H-imidazo[4,5-b]pyridin-6-yl)-2,3,4,5-tetrahydro-1,4-benzoxazepine]", "IC50": "10 to 50"}
{"smiles": "COc1ccc2c(N3CCOc4ccc(-c5ccc(N)cc5)cc4C3)nc(C)nc2c1", "note": "[Example 504, 4-{4-[2-methyl-7-(methyloxy)quinazolin-4-yl]-2,3,4,5-tetrahydro-1,4-benzoxazepin-7-yl}aniline]", "IC50": "250 to 1000"}
{"smiles": "Cc1nc2cc(-c3ccc4c(c3)CN(c3nc([C@H]5CCCN5)nc5c3CC(C)(C)CC5)CCO4)ccc2[nH]1", "note": "[Example 505, 4-{6,6-dimethyl-2-[(2R)-pyrrolidin-2-yl]-5,6,7,8-tetrahydroquinazolin-4-yl}-7-(2-methyl-1H-benzimidazol-5-yl)-2,3,4,5-tetrahydro-1,4-benzoxazepine]", "IC50": "10 to 50"}
{"smiles": "Cc1nc2cc(-c3ccc4c(c3)CN(c3nc([C@H]5CCCN5)nc5c3CC(C)(C)CC5)CCO4)cnc2[nH]1", "note": "[Example 506, 4-{6,6-dimethyl-2-[(2R)-pyrrolidin-2-yl]-5,6,7,8-tetrahydroquinazolin-4-yl]-7-(2-methyl-3H-imidazo[4,5-b]pyridin-6-yl)-2,3,4,5-tetrahydro-1,4-benzoxazepine]", "IC50": "≤ 10"}
{"smiles": "Cc1nc2cc(-c3ccc4c(c3)CN(c3nc([C@@H]5CCCN5)nc5c3CC(C)(C)CC5)CCO4)cnc2[nH]1", "note": "[Example 507, 4-{6,6-dimethyl-2-[(2S)-pyrrolidin-2-yl]-5,6,7,8-tetrahydroquinazolin-4-yl}-7-(2-methyl-3H-imidazo[4,5-b]pyridin-6-yl)-2,3,4,5-tetrahydro-1,4-benzoxazepine]", "IC50": "≤ 10"}
{"smiles": "COCc1nc2c(c(N3CCOc4ccc(-c5cnc6[nH]c(C)nc6c5)cc4C3)n1)CC(C)(C)CC2", "note": "[Example 508, 4-{6,6-dimethyl-2-[(methyloxy)methyl]-5,6,7,8-tetrahydroquinazolin-4-yl}-7-(2-methyl-3H-imidazo[4,5-b]pyridin-6-yl)-2,3,4,5-tetrahydro-1,4-benzoxazepine]", "IC50": "≤ 10"}
{"smiles": "CN(C)Cc1nc2c(c(N3CCOc4ccc(-c5ccc(N)nc5)cc4C3)n1)CC(C)(C)CC2", "note": "[Example 509, 5-(4-{2-[(dimethylamino)methyl]-6,6-dimethyl-5,6,7,8-tetrahydroquinazolin-4-yl}-2,3,4,5-tetrahydro-1,4-benzoxazepin-7-yl)pyridin-2-amine]", "IC50": "50 to 250"}
{"smiles": "CCS(=O)(=O)c1cc(-c2ccc3c(c2)CN(c2ncnc4c2CC(C)(C)CC4)CCO3)cnc1N", "note": "[Example 510, 5-[4-(6,6-dimethyl-5,6,7,8-tetrahydroquinazolin-4-yl)-2,3,4,5-tetrahydro-1,4-benzoxazepin-7-yl]-3-(ethylsulfonyl)pyridin-2-amine]", "IC50": "10 to 50"}
{"smiles": "CC1(C)CCc2ncnc(N3CCOc4ccc(-c5cnc(N)c(S(=O)(=O)N6CC7CNCC7C6)c5)cc4C3)c2C1", "note": "(stereo not shown) [Example 511, 5-[4-(6,6-dimethyl-5,6,7,8-tetrahydroquinazolin-4-yl)-2,3,4,5-tetrahydro-1,4-benzoxazepin-7-yl]-3-(hexahydropyrrolo[3,4-c]pyrrol-2(1H)-ylsulfonyl)pyridin-2-amine]", "IC50": "50 to 250"}
